The test system of experiment [1] is ENA-78. The experiment in a line: IL-1beta-stimulated ENA-78 production from HUVECs, cytometric immunofluorescence. The experiment is classed as cell-based, human. Conditions: for effect of co-treatment on the effect of AT on IL-1beta-stimulated ENA-78 production: IL-1beta and AT 10 uM, mevalonate 250 μM, FPP 5 μM, GGPP 5 μM; for stimulation of ENA-78 production by IL-1beta, times that of basal production: FIG. 15. As to the method:
Human umbilical vein endothelial cells (HUVECs) (Clonetics Cell Systems; Cambrex Bio Science Walkersville, Inc., Walkersville, USA) were cultured as previously described. Briefly, HUVECs between passes three and four were seeded at a density of 2.5×10^4 cells per cm^2 and cultured to 80% confluence with endothelial cell growth-supplemented medium (EGM-2-endothelial cell medium-2; Cambrex Bio Science Walkersville, Inc.). Once confluent, media was changed to serum free endothelial basal media (EBM-2-endothelial cell medium-2; Cambrex Bio Science Walkersville, Inc.) for 24 hours prior to treatment, in which EBM-2 media supplemented to a 2% FBS concentration was used. Treatments consisted of atorvastatin calcium (AT; LKT Laboratories Inc., St. […] All were dissolved in molecular grade water. All final DMSO concentrations were less then 0.1%. […] In experiments investigating the impact of AT on IL-1beta-stimulated ENA-78 production, HUVECs were pre-treated with AT followed by IL-1beta stimulation two hours later. […] In a separate set of experiments, cells were cultured with IL-1beta and AT in the presence or absence of mevalonate, FPP, and GGPP to determine whether AT inhibition of ENA-78 production was dependent on HMG-CoA reductase inhibition and subsequent downstream pathways. Cell culture supernates for all experiments were stored at -20° C. until analysis, which was performed within seven days. ENA-78 concentrations were measured and normalized to total protein content in cell culture supernates using cytometric immunofluorescence as previously described. Ribonucleic acid (RNA) was isolated using a commercial kit (RNeasy mini kit, Qiagen Inc., Valencia, USA). Complementary deoxyribonucleic acid (cDNA) conversion was performed by high capacity cDNA reverse transcription (Applied Biosystems, Foster City, USA) per protocol using roughly 2 μg of total RNA. RNA quality was assessed by absorbance (Nanodrop, Nanodrop Technologies, Wilmington, USA). Real-time reverse-transcription PCR (RT-PCR) was done using primer and probe sets for CXCL5 normalized to a housekeeping gene, glyceraldehyde-3-phosphate dehydrogenase (GAPDH; Taqman Gene Expression Assays, Applied Biosystems Inc.). […] PCR for both CXCL5 and GAPDH was performed at the same time using the following conditions: 95° C. for 2 minutes; 35 cycles of 95° C. for 30 seconds, 59° C. for 30 seconds, and 72° C. for 30 seconds; followed by 7 minutes of elongation at 72° C. Statistical differences in normalized protein concentrations and gene expression levels were determined by one way ANOVA and post-hoc Tukey analysis. […] An independent t-test was used to compare treatment differences at the same time points in the dose range analysis. […] Statistical analyses were performed with SPSS software, version 11.5 (SPSS Inc., Chicago, USA).

A further experiment has as its system CXCL5. The experiment in a line: CXCL5 gene expression in HUVECs, real-time RT-PCR normalized to GAPDH. The format is cell-based, human. To be noted: IL-1beta, 24 hours, FIG. 17. As to the method:
Human umbilical vein endothelial cells (HUVECs) (Clonetics Cell Systems; Cambrex Bio Science Walkersville, Inc., Walkersville, USA) were cultured as previously described. Briefly, HUVECs between passes three and four were seeded at a density of 2.5×10^4 cells per cm^2 and cultured to 80% confluence with endothelial cell growth-supplemented medium (EGM-2-endothelial cell medium-2; Cambrex Bio Science Walkersville, Inc.). Once confluent, media was changed to serum free endothelial basal media (EBM-2-endothelial cell medium-2; Cambrex Bio Science Walkersville, Inc.) for 24 hours prior to treatment, in which EBM-2 media supplemented to a 2% FBS concentration was used. Treatments consisted of atorvastatin calcium (AT; LKT Laboratories Inc., St. […] All were dissolved in molecular grade water. All final DMSO concentrations were less then 0.1%. […] In experiments investigating the impact of AT on IL-1beta-stimulated ENA-78 production, HUVECs were pre-treated with AT followed by IL-1beta stimulation two hours later. […] In a separate set of experiments, cells were cultured with IL-1beta and AT in the presence or absence of mevalonate, FPP, and GGPP to determine whether AT inhibition of ENA-78 production was dependent on HMG-CoA reductase inhibition and subsequent downstream pathways. Cell culture supernates for all experiments were stored at -20° C. until analysis, which was performed within seven days. ENA-78 concentrations were measured and normalized to total protein content in cell culture supernates using cytometric immunofluorescence as previously described. Ribonucleic acid (RNA) was isolated using a commercial kit (RNeasy mini kit, Qiagen Inc., Valencia, USA). […] RNA quality was assessed by absorbance (Nanodrop, Nanodrop Technologies, Wilmington, USA). […] Statistical differences in normalized protein concentrations and gene expression levels were determined by one way ANOVA and post-hoc Tukey analysis. […]

In the next experiment the test system is MCP-1. Kind of experiment: MCP-1 production by non-stimulated human umbilical vein endothelial cells, multiplex protein measurement. The experiment is classed as cell-based. Conditions: highest concentration of atorvastatin plus mevalonate 250 μM. As to the method: (§1) Human umbilical vein endothelial cells were obtained (Clonetics Cell Systems; Cambrex Bio Science Walkersville, Inc., Walkersville, Md.). Approximately 5×10^5 viable cells were seeded in endothelial cell growth-supplemented basal medium (EGM-2-endothelial cell medium-2; Cambrex Bio Science Walkersville, Inc.) and maintained at 37° C. under a 5% carbon dioxide atmosphere per manufacturer's protocol. The culture medium was changed 24 hours after seeding and every 48 hours thereafter until confluence. Cells were then treated with trypsin, seeded in a 48-well culture dish, and incubated under the conditions previously described. Cells used in this Example were from the third passage.
(§2) After cells reached 70-80% confluence in the culture dish, they were allowed to become quiescent in unsupplemented, serum-free medium for 24 hours before treatment and then placed in medium containing 2% fetal bovine serum. Atorvastatin (LKT Laboratories Inc., St. Paul, Minn.) was dissolved in dimethylsulfoxide (Sigma-Aldrich, St. Louis, Mo.). Cells were treated for 24 hours with atorvastatin 1-50 μM alone or with atorvastatin plus mevalonate 250 μM (Sigma-Aldrich). Controls were cells cultured without atorvastatin or atorvastatinmevalonate. […] All experiments were performed in duplicate.
(§3) After treatment, culture-conditioned media were collected, divided into aliquots, and stored at −80° C. for no longer than 7 days until multiplex measurement of chemokines, cytokines, and angiogenic factors was performed.
(§4) The culture-conditioned media protein content of epithelial neutrophil-activating peptide-78 (ENA-78), interleukin-8, (IL-8), monocyte chemotactic protein-1 (MCP-1), interleukin-6 (IL-6), interleukin-10 (IL-10), fibroblast growth factor (FGF), and granulocyte colony-stimulating factor (G-CSF) were measured by means of flow-based immunofluorescence multiplex detection (Fluorokine MAP Human Cytokine Panel; R&D Systems Inc., Minneapolis, Minn.) with the Luminex 100 IS platform (Luminex Corp., Austin, Tex.). Concentrations for each sample were normalized against milligrams of total protein by using a standard bicinchoninic acid protein assay (Pierce Biotechnology, Inc., Rockford, Ill.). Samples were assayed in duplicate.
(§5) Standard curves of best fit for each analyte were generated by plotting the median fluorescence intensities of the analyte standards against their known concentrations by using Beadview multiplex data analysis software version 1 (Upstate, Charlottesville, Va.).
(§6) Differences in biomolecular concentrations were compared by treatment group by applying one-way analysis of variance and a post-hoc Tukey's test as appropriate. The Jonckheere Terpstra test was performed to assess the trend for differences in biomolecular concentrations across concentrations of atorvastatin. […]

The subject of experiment [2] is ENA-78. The experiment in a line: ENA-78 production by non-stimulated human umbilical vein endothelial cells, multiplex protein measurement. The experiment is classed as cell-based. As to the method: as §1, §2, §3, §4, §5, §6
For another experiment, the system named is IL-8. The experiment in a line: IL-8 production by non-stimulated human umbilical vein endothelial cells, multiplex protein measurement. The format is cell-based. As to the method:
as §1, §2, §3, §4, §5
Differences in biomolecular concentrations were compared by treatment group by applying one-way analysis of variance and a post-hoc Tukey's test as appropriate. The Jonckheere Terpstra test was performed to assess the trend for differences in biomolecular concentrations across concentrations of atorvastatin. A p value below 0.05 was considered to indicate a statistically significant difference. Statistical analyses were performed with SPSS software, version 11.5 (SPSS Inc., Chicago, Ill.).

The test system of another experiment is IL-6. The experiment in a line: IL-6 production by non-stimulated human umbilical vein endothelial cells, multiplex protein measurement. The experiment is classed as cell-based. Conditions: atorvastatin plus mevalonate 250 μM. As to the method: as §1, with “passage. […]” for “passage.”
The culture-conditioned media protein content of epithelial neutrophil-activating peptide-78 (ENA-78), interleukin-8, (IL-8), monocyte chemotactic protein-1 (MCP-1), interleukin-6 (IL-6), interleukin-10 (IL-10), fibroblast growth factor (FGF), and granulocyte colony-stimulating factor (G-CSF) were measured by means of flow-based immunofluorescence multiplex detection (Fluorokine MAP Human Cytokine Panel; R&D Systems Inc., Minneapolis, Minn.) with the Luminex 100 IS platform (Luminex Corp., Austin, Tex.). […]

The mark [3] stands for this setting: highest concentration of atorvastatin.

In the case of farnesyl pyrophosphate [FPP], in the experiment on ENA-78 [1] (FIG. 16), the “effect of co-treatment on the effect of AT on IL-1beta-stimulated ENA-78 production” value (“effect of co-treatment” for short) is “partially reversed”.
As for geranylgeranyl pyrophosphate [GGPP], the “effect of co-treatment” value with ENA-78 [1] (FIG. 16) is “partially reversed”.
interleukin-1beta [IL-1beta]: the “stimulation of ENA-78 production by IL-1beta, times that of basal production” value turned out to be 29 times in the experiment with ENA-78 [1] (4 hours), 282 times with ENA-78 [1] (12 hours), 892 times with ENA-78 [1] (24 hours) and 1322 times in the experiment on ENA-78 [1] (48 hours). The “IL-1beta stimulated ENA-78 production relative to constitutive concentrations” value with ENA-78 [1] (IL-1beta 2 ng/ml, FIG. 14) was ~60 fold. Moreover, the “IL-1beta stimulated ENA-78 production” value with ENA-78 [1] (IL-1beta 2 ng/ml, no AT (constitutive 69±11 pg/mg), FIG. 14) came out at 4075 ± 360 pg/mg. Besides, the “IL-1beta-stimulated ENA-78 production” value with ENA-78 [1] (IL-1beta alone, mevalonate experiment, FIG. 16) is 3181 ± 590 pg/mg. In addition, the “CXCL5 expression in HUVECs” value in the experiment on CXCL5 was “highly induced”.
For the substance mevalonate, the “effect of co-treatment” value with ENA-78 [1] (FIG. 16) was “partially reversed”. The “effect of mevalonate cotreatment on atorvastatin effect on MCP-1” value in the experiment on MCP-1 is recorded as “reversed”. Moreover, the “effect of mevalonate cotreatment on atorvastatin effect on ENA-78 production” value with ENA-78 [2] (atorvastatin plus mevalonate 250 μM, 24 hours) is reported as “reversed”. Further, the “reversal of atorvastatin effects on ENA-78 by mevalonate” value in the experiment with ENA-78 [2] (setting [3]) is given as “potentially incomplete reversal”. Besides, the “reversal of atorvastatin effects on IL-8 by mevalonate” value in the experiment on IL-8 (setting [3]) is reported as “potentially incomplete reversal”. Moreover, the “effect of addition of mevalonate on atorvastatin effect on IL-8” value with IL-8 (mevalonate 250 μM, all atorvastatin groups) is listed as “reversed”. Further, the “effect of mevalonate on atorvastatin effect on IL-6” value in the experiment with IL-6 is “eliminated”.

(Values after patent publication US20080045582A1, “ENA-78 Gene Polymorphisms and Protein Concentrations as Diagnostic and Prognostic Tools” (priority 2006, published 2008).)
